Source: patent publication US6544985B2, “Dihydro-benzo [b][1,4]diazepin-2-one derivatives” (Hoffman-La Roche Inc., priority 2001, dated 2003)

SMILES	melting point
Cc1cc(-c2cccc(C3=Nc4cc(N(C)C(C)C)c(C(F)(F)F)cc4NC(=O)C3)c2)on1 [Example 120, 7-(Isopropyl-methyl-amino)-4-[3-(3-methyl-isoxazol-5-yl)-phenyl]-8-trifluoromethyl-1,3-dihydro-benzo[b][1,4]diazepin-2-one]	199 °C
CCCN(C)c1cc2c(cc1Cl)NC(=O)CC(c1cccc(-n3nncc3CN(C)C(C)C)c1)=N2 [Example 124, 8-Chloro-4-(3-{5-[(isopropyl-methyl-amino)-methyl]-[1,2,3]triazol-1-yl}-phenyl)-7-(methyl-propyl-amino)-1,3-dihydro-benzo[b][1,4]diazepin-2-one]	148 °C
CC(C)N(C)c1cc2c(cc1Cl)NC(=O)CC(c1cccc(-n3nncc3CN3CCCC3)c1)=N2 [Example 125, 8-Chloro-7-(isopropyl-methyl-amino)-4-[3-(5-pyrrolidin-1-ylmethyl-[1,2,3]triazol-1-yl)-phenyl]-1,3-dihydro-benzo[b][1,4]diazepin-2-one]	172 °C
CC(C)CN(C)c1cc2c(cc1Cl)NC(=O)CC(c1cccc(-n3nncc3CN(C)C)c1)=N2 [Example 128, 8-Chloro-4-[3-(5-dimethylaminomethyl-[1,2,3]triazol-1-yl)-phenyl]-7-(isobutyl-methyl-amino)-1,3-dihydro-benzo[b][1,4]diazepin-2-one]	199 °C
CC(C)N(C)c1cc2c(cc1Cl)NC(=O)CC(c1cccc(-n3nncc3CN3CCC3)c1)=N2 [Example 129, 4-[3-(5-Azetidin-1-ylmethyl-[1,2,3]triazol-1-yl)-phenyl]-8-chloro-7-(isopropyl-methyl-amino)-1,3dihydro-benzo[b][1,4]diazepin-2-one]	177 °C
CC(C)CN(C)c1cc2c(cc1Cl)NC(=O)CC(c1cccc(-n3nncc3CN3CCC3)c1)=N2 [Example 130, 4-[3-(5-Azetidin-1-ylmethyl-[1,2,3]triazol-1-yl)-phenyl]-8-chloro-7-(isobutyl-methyl-amino)-1,3-dihydro-benzo[b][1,4]diazepin-2-one]	191 °C
Cc1cc2c(cc1N(C)CC(C)C)N=C(c1cccc(-n3nncc3CO)c1)CC(=O)N2 [Example 132, 4-[3-(5-Hydroxymethyl-[1,2,3]triazol-1-yl)-phenyl]-7-(isobutyl-methyl-amino)-8-methyl-1,3-dihydro-benzo[b][1,4]diazepin-2-one]	198 °C
Cc1cc(-c2cccc(C3=Nc4cc(N5CCCC5)c(C)cc4NC(=O)C3)c2)on1 [Example 135, 8-Methyl-4-[3-(3-methyl-isoxazol-5-yl)-phenyl]-7-pyrrolidin-1-yl-1,3-dihydro-benzo[b][1,4]diazepin-2-one]	211 °C
CC(C)CN(C)c1cc2c(cc1C(F)(F)F)NC(=O)CC(c1cccc(-n3nncc3CN(C)C)c1)=N2 [Example 136, 4-[3-(5-Dimethylaminomethyl-[1,2,3]triazol-1-yl)-phenyl]-7-(isobutyl-methyl-amino)-8-trifluoromethyl-1,3-dihydro-benzo[b][1,4]diazepin-2-one]	182 °C
CC(C)CN(C)c1cc2c(cc1C#N)NC(=O)CC(c1cccc(-n3nncc3CN3CCCC3)c1)=N2 [Example 137, 8-(Isobutyl-methyl-amino)-4-oxo-2-[3-(5-pyrrolidin-1-ylmethyl-[1,2,3]triazol-1-yl)-phenyl]-4,5-dihydro-3H-benzo[b][1,4]diazepine-7-carbonitrile]	174 °C
CC(C)CN(C)c1cc2c(cc1C(F)(F)F)NC(=O)CC(c1cccc(-n3nncc3CN(C)C(C)C)c1)=N2 [Example 141, 7-(Isobutyl-methyl-amino)-4-(3-{5-[(isopropyl-methyl-amino)-methyl]-[1,2,3]triazol-1yl}-phenyl)-8-trifluoromethyl-1,3-dihydro-benzo[b][1,4]diazepin-2-one]	157 °C
CC(C)N(C)c1cc2c(cc1Cl)NC(=O)CC(c1cccc(-n3nncc3CNC3CCCC3)c1)=N2 [Example 142, 8-Chloro-4-[3-(5-cyclopentylaminomethyl-[1,2,3]triazol-1-yl)-phenyl]-7-(isopropyl-methyl-amino)-1,3-dihydro-benzo[b][1,4]diazepin-2-one]	174 °C
CC(C)N(C)Cc1cnnn1-c1cccc(C2=Nc3cc(N(C)C(C)C)c(Cl)cc3NC(=O)C2)c1 [Example 148, 8-Chloro-7-(isopropyl-methyl-amino)-4-(3-{5-[(isopropyl-methyl-amino)-methyl]-[1,2,3]triazol-1-yl}-phenyl)-1,3-dihydro-benzo[b][1,4]diazepin-2-one]	180 °C
CC(C)CN(C)Cc1cnnn1-c1cccc(C2=Nc3cc(N(C)C(C)C)c(Cl)cc3NC(=O)C2)c1 [Example 149, 8-Chloro-4-(3-{5-[(isobutyl-methyl-amino)-methyl]-[1,2,3]triazol-1-yl}-phenyl)-7-(isopropyl-methyl-amino)-1,3-dihydro-benzo[b][1,4]diazepin-2-one]	182 °C
CC(C)N(C)c1cc2c(cc1C(F)(F)F)NC(=O)CC(c1cccc(-n3nncc3CN(C)C)c1)=N2 [Example 150, 4-[3-(5-Dimethylaminomethyl-[1,2,3]triazol-1-yl)-phenyl]-7-(isopropyl-methyl-amino)-8-trifluoromethyl-1,3-dihydro-benzo[b][1,4]diazepin-2-one]	197 °C
CC(C)N(C)c1cc2c(cc1C(F)(F)F)NC(=O)CC(c1cccc(-n3nncc3CN3CCCC3)c1)=N2 [Example 151, 7-(Isopropyl-methyl-amino)-4-[3-(5-pyrrolidin-1-ylmethyl-[1,2,3]triazol-1-yl)-phenyl]-8-trifluoromethyl-1,3-dihydro-benzo[b][1,4]diazepin-2-one]	175 °C
CC(C)N(C)c1cc2c(cc1C(F)(F)F)NC(=O)CC(c1cccc(-n3nncc3CNCC3CC3)c1)=N2 [Example 153, 4-(3-{5-[(Cyclopropylmethyl-amino)-methyl]-[1,2,3]triazol-1-yl}-phenyl)-7-(isopropyl-methyl-amino)-8-trifluoromethyl-1,3-dihydro-benzo[b][1,4]diazepin-2-one]	152 °C
CC(C)N(C)c1cc2c(cc1Cl)NC(=O)CC(c1cccc(-n3nncc3CNC3CC3)c1)=N2 [Example 154, 8-Chloro-4-[3-(5-cyclopropylaminomethyl-[1,2,3]triazol-1-yl)-phenyl]-7-(isopropyl-methyl-amino)-1,3-dihydro-benzo[b][1,4]diazepin-2-one]	144 °C
CC(C)NCc1cnnn1-c1cccc(C2=Nc3cc(N(C)C(C)C)c(C(F)(F)F)cc3NC(=O)C2)c1 [Example 155, 4-{3-[5-(Isopropylamino-methyl)-[1,2,3]triazol-1-yl]-phenyl}-7-(isopropyl-methyl-amino)-8-trifluoromethyl-1,3-dihydro-benzo[b][1,4]diazepin-2-one]	191 °C
CC(C)N(C)c1cc2c(cc1C(F)(F)F)NC(=O)CC(c1cccc(-n3nncc3CNC3CC3)c1)=N2 [Example 157, 4-[3-(5-Cyclopropylaminomethyl-[1,2,3]triazol-1-yl)-phenyl]-7-(isopropyl-methyl-amino)-8-trifluoromethyl-1,3-dihydro-benzo[b][1,4]diazepin-2-one]	178 °C

Other lines, results leading:

melting point	SMILES
151 °C	CCCN(C)c1cc2c(cc1Cl)NC(=O)CC(c1cccc(-n3nncc3CN(CC)CC)c1)=N2 [Example 123, 8-Chloro-4-[3-(5-diethylaminomethyl-[1,2,3]triazol-1-yl)-phenyl]-7-(methyl-propyl-amino)-1,3-dihydro-benzo[b][1,4]diazepin-2-one]
190 °C	CC(C)CN(C)c1cc2c(cc1Cl)NC(=O)CC(c1cccc(-n3nncc3CN3CCCC3)c1)=N2 [Example 126, 8-Chloro-7-(isobutyl-methyl-amino)-4-[3-(5-pyrrolidin-1-ylmethyl-[1,2,3]triazol-1-yl)-phenyl]-1,3-dihydro-benzo[b][1,4]diazepin-2-one]
187 °C	Cc1cc(-c2cccc(C3=Nc4cc(N(C)CC(C)C)c(C)cc4NC(=O)C3)c2)on1 [Example 134, 7-(Isobutyl-methyl-amino)-8-methyl-4-[3-(3-methyl-isoxazol-5-yl)-phenyl]-1,3-dihydro-benzo[b][1,4]diazepin-2-one]
177 °C	Cc1cc2c(cc1N(C)CC(C)C)N=C(c1cccc(-n3nncc3CN3CCCC3)c1)CC(=O)N2 [Example 139, 7-(Isobutyl-methyl-amino)-8-methyl-4-[3-(5-pyrrolidin-1-ylmethyl-[1,2,3]triazol-1-yl)-phenyl]-1,3-dihydro-benzo[b][1,4]diazepin-2-one]
184 °C	Cc1cc2c(cc1N(C)CC(C)C)N=C(c1cccc(-n3nncc3CNCC3CC3)c1)CC(=O)N2 [Example 143, 4-(3-{5-[(Cyclopropylmethyl-amino)-methyl]-[1,2,3]triazol-1-yl}-phenyl)-7-(isobutyl-methyl-amino)-8-methyl-1,3-dihydro-benzo[b][1,4]diazepin-2-one]
169 °C	CC(C)CN(C)c1cc2c(cc1Cl)NC(=O)CC(c1cccc(-n3nncc3CN3CCCCC3)c1)=N2 [Example 144, 8-Chloro-7-(isobutyl-methyl-amino)-4-[3-(5-piperidin-1-ylmethyl-[1,2,3]triazol-1-yl)-phenyl]-1,3-dihydro-benzo[b][1,4]diazepin-2-one]
208 °C	CC(C)NCc1cnnn1-c1cccc(C2=Nc3cc(N(C)C(C)C)c(Cl)cc3NC(=O)C2)c1 [Example 145, 8-Chloro-4-{3-[5-(isopropylamino-methyl)-[1,2,3]triazol-1-yl]-phenyl}-7-(isopropyl-methyl-amino)-1,3-dihydro-benzo[b][1,4]diazepin-2-one]
119 °C	COCCN(C)Cc1cnnn1-c1cccc(C2=Nc3cc(N(C)C(C)C)c(Cl)cc3NC(=O)C2)c1 [Example 146, 8-Chloro-7-(isopropyl-methyl-amino)-4-[3-(5-{[(2-methoxy-ethyl)-methyl-amino]-methyl}-[1,2,3]triazol-1-yl)-phenyl]-1,3-dihydro-benzo[b][1,4]diazepin-2-one]
182 °C	CC(C)CNCc1cnnn1-c1cccc(C2=Nc3cc(N(C)C(C)C)c(Cl)cc3NC(=O)C2)c1 [Example 156, 8-Chloro-4-{3-[5-(isobutylamino-methyl)-[1,2,3]triazol-1-yl]-phenyl}-7-(isopropyl-methyl-amino)-1,3-dihydro-benzo[b][1,4]-diazepin-2-one]
